Drawing on patent US12528786B2, “Plasma kallikrein inhibitors” (Merck Sharp & Dohme LLC, priority 2020, dated 2026), this text covers IC50 for 19 compounds.

Each structure is given as a SMILES string.

This experiment deals with T1, Human plasma kallikrein (Homo sapiens, UniProt P03952).
T1 construct: yields a heavy chain (371 amino acids) and a light chain (248 amino acids); purchased Enzyme Research Laboratories
The experiment in a line: Kallikrein Assay (fluorogenic substrate hydrolysis, AFC release). As to conditions: purified Human plasma kallikrein 0.5 nM; substrate Acetyl-K—P—R-AFC 100 mM; 50 mM HEPES pH 7.4. Type of experiment: biochemical. As to the method: The effectiveness of a compound of the present invention as an inhibitor of Kallikrein can be determined using a relevant purified serine protease, and an appropriate synthetic substrate. The rate of hydrolysis of the chromogenic or fluorogenic substrate by the relevant serine protease was measured both in the absence and presence of compounds of the present invention. Assays were conducted at room temperature or at 37° C. […] A decrease in the rate of fluorescence change in the presence of inhibitor is indicative of enzyme inhibition. Such methods are known to one skilled in the art. The results of this assay are expressed as the half-maximal inhibitory concentrations (IC50), or the inhibitory constant, Ki.
Kallikrein determinations were made in 50 mM HEPES buffer at pH 7.4 containing 150 mM NaCl, 5 mM CaCl2), and 0.1% PEG 8000 (polyethylene glycol; Fisher Scientific). Determinations were made using purified Human plasma kallikrein at a final concentration of 0.5 nM (Enzyme Research Laboratories) and the synthetic substrate, Acetyl-K—P—R-AFC (Sigma #C6608) at a concentration of […].
Activity assays were performed by diluting a stock solution of substrate at least tenfold to a final concentration ≤0.2 Km into a solution containing enzyme or enzyme equilibrated with inhibitor. Times required to achieve equilibration between enzyme and inhibitor were determined in control experiments. The reactions were performed under linear progress curve conditions and fluorescence increase measured at 405 Ex/510 Em nm. Values were converted to percent inhibition of the control reaction (after subtracting 100% Inhibition value). IC50 was determined by inflection point from a four parameter logistic curve fit. Ki was calculated using the Cheng Prusoff equation, Ki=IC50/(1+([S]/Km)).

T1 sequence (P03952 391-638 limits assumed): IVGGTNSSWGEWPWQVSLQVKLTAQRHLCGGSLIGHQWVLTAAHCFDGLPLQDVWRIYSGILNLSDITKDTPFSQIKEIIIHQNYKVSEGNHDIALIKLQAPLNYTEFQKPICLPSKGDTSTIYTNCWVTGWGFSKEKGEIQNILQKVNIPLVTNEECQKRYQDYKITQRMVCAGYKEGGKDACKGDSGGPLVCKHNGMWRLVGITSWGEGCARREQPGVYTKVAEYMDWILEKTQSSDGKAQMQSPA
T1 sequence (P03952 20-390 partner limits assumed): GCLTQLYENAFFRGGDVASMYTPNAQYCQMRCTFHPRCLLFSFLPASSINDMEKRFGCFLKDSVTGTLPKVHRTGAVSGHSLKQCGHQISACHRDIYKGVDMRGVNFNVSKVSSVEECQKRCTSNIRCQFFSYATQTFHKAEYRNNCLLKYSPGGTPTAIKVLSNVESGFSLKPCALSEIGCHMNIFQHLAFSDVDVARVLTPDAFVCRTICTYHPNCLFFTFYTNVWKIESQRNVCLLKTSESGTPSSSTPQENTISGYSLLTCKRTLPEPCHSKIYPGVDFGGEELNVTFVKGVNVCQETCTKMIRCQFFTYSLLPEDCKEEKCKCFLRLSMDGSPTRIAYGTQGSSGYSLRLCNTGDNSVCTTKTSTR

The term IC50 denotes the concentration needed to halve the response being measured. Consider `Cc1ccc(C#N)c([C@H]2C[C@@H](NC(=O)c3cnn(C(C)c4cnc(N5C[C@H]6C[C@H]6C5=O)c(C)c4C)c3)C2)c1` (single isomer, unassigned) [Example 45, N-((cis)-3-(2-cyano-5-methylphenyl)cyclobutyl)-1-((R or S)-1-(4,5-dimethyl-6-((1R,5S)-2-oxo-3-azabicyclo[3.1.0]hexan-3-yl)pyridin-3-yl)ethyl)-1H-pyrazole-4-carboxamide], for which the IC50 is 0.2 nM.
In the case of `Cc1ccc(C#N)c([C@H]2C[C@@H](NC(=O)c3cnn(C(C)c4cnc(N5C[C@H]6C[C@H]6C5=O)c(C)c4C)c3)C2)c1` (single isomer, unassigned) [Example 46, N-((cis)-3-(2-cyano-5-methylphenyl)cyclobutyl)-1-((S or R)-1-(4,5-dimethyl-6-((1R,5S)-2-oxo-3-azabicyclo[3.1.0]hexan-3-yl)pyridin-3-yl)ethyl)-1H-pyrazole-4-carboxamide] it was 2.7 nM; in that of `Cc1cc(N2C[C@H]3C[C@H]3C2=O)nnc1C(C)n1cc(C(=O)N[C@H]2C[C@@H](c3cc(Cl)ccc3C#N)C2)cn1` (single isomer, unassigned) [Example 47, N-((cis)-3-(5-chloro-2-cyanophenyl)cyclobutyl)-1-((R or S)-1-(4-methyl-6-((1R,5S)-2-oxo-3-azabicyclo[3.1.0]hexan-3-yl)pyridazin-3-yl)ethyl)-1H-pyrazole-4-carboxamide], 2.1 nM.
The value for `Cc1cc(N2C[C@H]3C[C@H]3C2=O)nnc1C(C)n1cc(C(=O)N[C@H]2C[C@@H](c3cc(Cl)ccc3C#N)C2)cn1` (single isomer, unassigned) [Example 48, N-((cis)-3-(5-chloro-2-cyanophenyl)cyclobutyl)-1-((S or R)-1-(4-methyl-6-((1R,5S)-2-oxo-3-azabicyclo[3.1.0]hexan-3-yl)pyridazin-3-yl)ethyl)-1H-pyrazole-4-carboxamide] was 127 nM; that for `COCc1nn(C(C)c2cnc(N3C[C@H]4C[C@H]4C3=O)cc2C)cc1C(=O)N[C@H]1C[C@@H](c2cc(Cl)ccc2C#N)C1` (single isomer, unassigned) [Example 49, N-((cis)-3-(5-chloro-2-cyanophenyl)cyclobutyl)-3-(methoxymethyl)-1-((R or S)-1-(4-methyl-6-((1R,5S)-2-oxo-3-azabicyclo[3.1.0]hexan-3-yl)pyridin-3-yl)ethyl)-1H-pyrazole-4-carboxamide] was 0.4 nM.
The value for `COCc1nn(C(C)c2cnc(N3C[C@H]4C[C@H]4C3=O)cc2C)cc1C(=O)N[C@H]1C[C@@H](c2cc(Cl)ccc2C#N)C1` (single isomer, unassigned) [Example 50, N-((cis)-3-(5-chloro-2-cyanophenyl)cyclobutyl)-3-(methoxymethyl)-1-((S or R)-1-(4-methyl-6-((1R,5S)-2-oxo-3-azabicyclo[3.1.0]hexan-3-yl)pyridin-3-yl)ethyl)-1H-pyrazole-4-carboxamide] was 8.2 nM; that for `Cc1ccc(C#N)c([C@H]2C[C@@H](NC(=O)c3cnn(C(C)c4cnc(N5C[C@H]6C[C@H]6C5=O)c(C)n4)c3)C2)n1` (single isomer, unassigned) [Example 51, N-((cis)-3-(3-cyano-6-methylpyridin-2-yl)cyclobutyl)-1-((R or S)-1-(6-methyl-5-((1R,5S)-2-oxo-3-azabicyclo[3.1.0]hexan-3-yl)pyrazin-2-yl)ethyl)-1H-pyrazole-4-carboxamide] was 2.4 nM; that for `Cc1ccc(C#N)c([C@H]2C[C@@H](NC(=O)c3cnn(C(C)c4cnc(N5C[C@H]6C[C@H]6C5=O)c(C)n4)c3)C2)n1` (single isomer, unassigned) [Example 52, N-((cis)-3-(3-cyano-6-methylpyridin-2-yl)cyclobutyl)-1-((S or R)-1-(6-methyl-5-((1R,5S)-2-oxo-3-azabicyclo[3.1.0]hexan-3-yl)pyrazin-2-yl)ethyl)-1H-pyrazole-4-carboxamide] was 10.1 nM.
In turn, `Cc1cc(N2C[C@H]3C[C@H]3C2=O)nnc1C(C)n1cc(C(=O)N[C@H]2C[C@@H](c3cc(Cl)ccc3C#N)C2)cn1` (single isomer, unassigned) [Example 53, N-((cis)-3-(5-chloro-2-cyanophenyl)cyclobutyl)-1-((R or S)-1-(4-methyl-6-((1R,5S)-2-oxo-3-azabicyclo[3.1.0]hexan-3-yl)pyridazin-3-yl)ethyl)-1H-pyrazole-4-carboxamide] displayed an IC50 of 4.7 nM.
The compound `Cc1cc(N2C[C@H]3C[C@H]3C2=O)nnc1C(C)n1cc(C(=O)N[C@H]2C[C@@H](c3cc(Cl)ccc3C#N)C2)cn1` (single isomer, unassigned) [Example 54, N-((cis)-3-(5-chloro-2-cyanophenyl)cyclobutyl)-1-((S or R)-1-(4-methyl-6-((1R,5S)-2-oxo-3-azabicyclo[3.1.0]hexan-3-yl)pyridazin-3-yl)ethyl)-1H-pyrazole-4-carboxamide] registered an IC50 of 239 nM.
On to `Cc1cc([C@@H](C)n2cc(C(=O)N[C@H]3C[C@@H](c4cc(Cl)ccc4C#N)C3)nn2)cnc1N1C[C@H]2C[C@H]2C1=O` (single isomer, unassigned) [Example 55], for which 0.6 nM corresponded to half-maximal inhibition (IC50).
As to `Cc1cc([C@H](C)n2cc(C(=O)N[C@H]3C[C@@H](c4cc(Cl)ccc4C#N)C3)nn2)cnc1N1C[C@H]2C[C@H]2C1=O` (single isomer, unassigned) [Example 56], the IC50 amounted to 1.5 nM.
`CC(c1ccc(N2C[C@H]3C[C@H]3C2=O)nc1)n1cc(C(=O)N[C@H]2C[C@@H](c3cc(Cl)ccc3C#N)C2)nn1` (single isomer, unassigned) [Example 57, N-((cis)-3-(5-chloro-2-cyanophenyl)cyclobutyl)-1-((R or S)-1-(6-((1R,5S)-2-oxo-3-azabicyclo[3.1.0]hexan-3-yl)pyridin-3-yl)ethyl)-1H-1,2,3-triazole-4-carboxamide] came in with an IC50 of 7.7 nM.
`CC(c1ccc(N2C[C@H]3C[C@H]3C2=O)nc1)n1cc(C(=O)N[C@H]2C[C@@H](c3cc(Cl)ccc3C#N)C2)nn1` (single isomer, unassigned) [Example 58, N-((cis)-3-(5-chloro-2-cyanophenyl)cyclobutyl)-1-((S or R)-1-(6-((1R,5S)-2-oxo-3-azabicyclo[3.1.0]hexan-3-yl)pyridin-3-yl)ethyl)-1H-1,2,3-triazole-4-carboxamide] yielded an IC50 of 5 nM.
In the case of `Cc1cc(N2C[C@H]3C[C@H]3C2=O)ncc1C(C)n1cc(C(=O)N[C@H]2C[C@@H](c3cc(Cl)ccc3C#N)C2)nn1` (single isomer, unassigned) [Example 59, N-((cis)-3-(5-chloro-2-cyanophenyl)cyclobutyl)-1-((R or S)-1-(4-methyl-6-((1R,5S)-2-oxo-3-azabicyclo[3.1.0]hexan-3-yl)pyridin-3-yl)ethyl)-1H-1,2,3-triazole-4-carboxamide] it was 0.6 nM.
`Cc1cc(N2C[C@H]3C[C@H]3C2=O)ncc1C(C)n1cc(C(=O)N[C@H]2C[C@@H](c3cc(Cl)ccc3C#N)C2)nn1` (single isomer, unassigned) [Example 60, N-((cis)-3-(5-chloro-2-cyanophenyl)cyclobutyl)-1-((S or R)-1-(4-methyl-6-((1R,5S)-2-oxo-3-azabicyclo[3.1.0]hexan-3-yl)pyridin-3-yl)ethyl)-1H-1,2,3-triazole-4-carboxamide] displayed an IC50 of 14.6 nM.
As for `Cc1cc(N2C[C@H]3C[C@H]3C2=O)ncc1C(C)n1cc(C(=O)N[C@@H]2CC[C@H](c3cc(Cl)ccc3C#N)C2)nn1` (single isomer, unassigned) [Example 62, N-((1R,3S)-3-(5-chloro-2-cyanophenyl)cyclopentyl)-1-((R or S)-1-(4-methyl-6-((1R,5S)-2-oxo-3-azabicyclo[3.1.0]hexan-3-yl)pyridin-3-yl)ethyl)-1H-1,2,3-triazole-4-carboxamide], half-maximal inhibition (IC50) required 2710 nM.
`Cc1cc(N2C[C@H]3C[C@H]3C2=O)ncc1C(C)n1cc(C(=O)N[C@@H]2CC[C@H](c3cc(Cl)ccc3C#N)C2)nn1` (single isomer, unassigned) [Example 63, N-((1R,3S)-3-(5-chloro-2-cyanophenyl)cyclopentyl)-1-((S or R)-1-(4-methyl-6-((1R,5S)-2-oxo-3-azabicyclo[3.1.0]hexan-3-yl)pyridin-3-yl)ethyl)-1H-1,2,3-triazole-4-carboxamide] returned an IC50 of 26 nM.
In turn, `Cc1cc(N2C[C@H]3C[C@H]3C2=O)ncc1C(C)n1cc(C(=O)N[C@H]2C[C@@](C)(c3cc(Cl)ccc3C#N)C2)nn1` (single isomer, unassigned) [Example 64, N-((cis)-3-(5-chloro-2-cyanophenyl)-3-methylcyclobutyl)-1-((R or S)-1-(4-methyl-6-((1R,5S)-2-oxo-3-azabicyclo[3.1.0]hexan-3-yl)pyridin-3-yl)ethyl)-1H-1,2,3-triazole-4-carboxamide] had an IC50 of 15.9 nM.
